Results reported in PubChem BioAssay (NCI).
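How tested: cells in 96-well plates exposed to compound for 48 hours at five concentrations. Here, GI50 denotes the concentration required for 50% inhibition of growth. TGI denotes the concentration required for complete inhibition of growth.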

These molecules were tested on SW-620 colon (assay: NCI-60 cell line screen, 48 h).
`O=c1c(F)cn(Cc2ccc(C34CC5CC(CC(C5)C3)C4)c(O)c2)c(=O)n1Cc1ccc(C23CC4CC(CC(C4)C2)C3)c(O)c1` was tested, and the GI50 was 10.7 µM and the TGI was 26.4 µM. In the case of `CCOC(=O)Nc1cc2c(c(N)n1)N=C(c1ccccc1)CO2`, the GI50 is reported as 0.0496 µM and the TGI is reported as 98.2 µM. In the case of `CC1CC2CCCC(O)=C2C(=O)O1` (stereo unspecified), the TGI is reported as > 100 µM. Work on `CC(C)(/C=C(\C#N)C(=O)N1CCC[C@@H](n2nc(-c3ccc(Oc4ccccc4)cc3F)c3c(N)ncnc32)C1)N1CCN(C2COC2)CC1` yielded a GI50 of 12.4 µM and a TGI of 31.3 µM. `O=c1oc2ccc(-c3ccc(F)cc3F)cc2c(=O)n1-c1cccc(C(F)(F)F)c1` was tested, and the GI50 was 2.64 µM and the TGI was 12.8 µM. `COC(=O)c1ccc2c(c1)C(=O)c1c-2n(CCCN=[N+]=[N-])c(=O)c2cc(OC)c(OC)cc12` was tested, and the GI50 was > 100 µM and the TGI was > 100 µM. `O=C(Cc1ccc(F)c(Cl)c1)Nc1cc(C2(C(F)(F)F)CC2)nn1CC1CCCCC1` gave a GI50 of 3.92 µM and a TGI of 14.4 µM. With `NC1CCN(Cc2ccccc2)CC1` the GI50 was > 100 µM and the TGI was > 100 µM. In the case of `Nc1ncn([C@@H]2O[C@H](CO)[C@@H](O)[C@H]2O)c(=O)n1`, the GI50 is reported as 1.71 µM and the TGI is reported as > 100 µM. `CC(=O)Nc1ccc(-c2csc(Nc3cccc(-c4csc(C)n4)c3)n2)cc1` gave a GI50 of 3.51 µM and a TGI of 49 µM. `C=CCC1(c2ccc(OC)cc2)C=CC(=O)CC1` (stereo unspecified) was tested, and the TGI was > 100 µM. In the case of `COc1ccc(C(=O)Nc2ccc(O)c(=O)cc2)cc1`, the TGI is reported as > 100 µM.

The molecules below were run on SK-MEL-5 melanoma (assay: NCI-60 cell line screen, 48 h).
Molecule `CC1(C)OC2C(CO[Si](C)(C)C(C)(C)C)OC(n3c(I)c(C#C[Si](C)(C)C)c(=O)[nH]c3=O)C2O1` (stereo unspecified) has a GI50 of 13.4 µM and a TGI of 26.2 µM. `CN(C)CC[C@H](CSc1ccccc1)Nc1ccc(S(=O)(=O)NC(=O)c2ccc(N3CCN(Cc4ccccc4-c4ccc(Cl)cc4)CC3)cc2)cc1[N+](=O)[O-]` showed a GI50 of 1.56 µM and a TGI of 3.23 µM. Work on `COc1ccc(-c2ccc(=O)oc2C#Cc2cc(OC)c(OC)c(OC)c2)cc1O` yielded a GI50 of 0.183 µM and a TGI of 1.16 µM. In the case of `O=C(/C=C/c1ccc[nH]1)c1ccc(-n2ccc(C(F)(F)F)n2)cc1`, the GI50 is reported as > 100 µM and the TGI is reported as > 100 µM. Work on `O=C(c1ccco1)c1c(C(F)(F)F)nc2ccc(Cl)cc2[n+]1[O-]` yielded a GI50 of 17.5 µM and a TGI of 31.6 µM. With `Clc1cc2c(c(CSc3nc4ccccc4n4cccc34)c1)OCOC2` the GI50 was > 100 µM and the TGI was > 100 µM. Molecule `CN1CCN(c2ccc(Nc3cc(-c4cccc(-n5ccc6cc(C7CC7)cc(F)c6c5=O)c4CO)cn(C)c3=O)nc2)CC1` has a GI50 of 11.9 µM and a TGI of 31.1 µM. `COc1ccc2nc3ccccc3c(NCc3ccc(F)cc3)c2c1` showed a GI50 of 2 µM and a TGI of 7.2 µM. With `CN(C)C1CCN(C(=O)c2ccc(NC(=O)Nc3ccc(-c4nc(N5CCOCC5)c5cccn5n4)cc3)cc2)CC1` the GI50 was 0.153 µM and the TGI was 0.662 µM. In the case of `COc1cc(N=Nc2ccc(O)c3ncccc23)c2ncccc2c1`, the GI50 is reported as 2.09 µM and the TGI is reported as 13.3 µM. Molecule `CCn1c(O)c(/C=N/NC(=O)C(C)c2ccc(CC(C)C)cc2)sc1=S` (stereo unspecified) has a GI50 of 0.489 µM and a TGI of 3.26 µM. In the case of `C[C@@H]1C[C@@H]([C@@H](CC2CC(=O)NC(=O)C2)OC(=O)CC(=O)c2ccccc2)C(=O)[C@@H](C)C1`, the GI50 is reported as 0.661 µM and the TGI is reported as > 100 µM. `N=c1c2c(-c3ccccc3)c(-c3ccccc3)n(Cc3ccccc3)c2ncn1C1CCC(O)CC1` (stereo unspecified) gave a GI50 of 0.511 µM and a TGI of 1.85 µM. `O=c1c(F)cn(Cc2ccc(C34CC5CC(CC(C5)C3)C4)c(O)c2)c(=O)n1Cc1ccc(C23CC4CC(CC(C4)C2)C3)c(O)c1` gave a GI50 of 13.9 µM and a TGI of 27 µM. `CCOC(=O)Nc1cc2c(c(N)n1)N=C(c1ccccc1)CO2` gave a GI50 of 0.174 µM and a TGI of 5.9 µM. With `CC1CC2CCCC(O)=C2C(=O)O1` (stereo unspecified) the TGI was > 100 µM. For `CC(C)(/C=C(\C#N)C(=O)N1CCC[C@@H](n2nc(-c3ccc(Oc4ccccc4)cc3F)c3c(N)ncnc32)C1)N1CCN(C2COC2)CC1`, the GI50 was 3.96 µM and the TGI was 13.9 µM. `O=c1oc2ccc(-c3ccc(F)cc3F)cc2c(=O)n1-c1cccc(C(F)(F)F)c1` gave a GI50 of 0.44 µM and a TGI of 1.71 µM. With `COC(=O)c1ccc2c(c1)C(=O)c1c-2n(CCCN=[N+]=[N-])c(=O)c2cc(OC)c(OC)cc12` the GI50 was > 100 µM and the TGI was > 100 µM. `O=C(Cc1ccc(F)c(Cl)c1)Nc1cc(C2(C(F)(F)F)CC2)nn1CC1CCCCC1` gave a GI50 of 2.61 µM and a TGI of 4.88 µM. In the case of `NC1CCN(Cc2ccccc2)CC1`, the GI50 is reported as 24.2 µM and the TGI is reported as > 100 µM. For `Nc1ncn([C@@H]2O[C@H](CO)[C@@H](O)[C@H]2O)c(=O)n1`, the GI50 was 2.15 µM and the TGI was 7.04 µM. Molecule `CC(=O)Nc1ccc(-c2csc(Nc3cccc(-c4csc(C)n4)c3)n2)cc1` has a GI50 of 0.26 µM and a TGI of 8.62 µM. For `C=CCC1(c2ccc(OC)cc2)C=CC(=O)CC1` (stereo unspecified), the TGI was > 100 µM. With `COc1ccc(C(=O)Nc2ccc(O)c(=O)cc2)cc1` the TGI was > 100 µM.

The molecules below were run on HCT-15 colon (assay: NCI-60 cell line screen, 48 h).
Molecule `CC1(C)OC2C(CO[Si](C)(C)C(C)(C)C)OC(n3c(I)c(C#C[Si](C)(C)C)c(=O)[nH]c3=O)C2O1` (stereo unspecified) has a GI50 of 2.39 µM and a TGI of 15.4 µM. In the case of `CN(C)CC[C@H](CSc1ccccc1)Nc1ccc(S(=O)(=O)NC(=O)c2ccc(N3CCN(Cc4ccccc4-c4ccc(Cl)cc4)CC3)cc2)cc1[N+](=O)[O-]`, the GI50 is reported as 5.09 µM and the TGI is reported as > 100 µM. In the case of `COc1ccc(-c2ccc(=O)oc2C#Cc2cc(OC)c(OC)c(OC)c2)cc1O`, the GI50 is reported as 0.324 µM and the TGI is reported as > 100 µM. For `O=C(/C=C/c1ccc[nH]1)c1ccc(-n2ccc(C(F)(F)F)n2)cc1`, the GI50 was > 100 µM and the TGI was > 100 µM. With `O=C(c1ccco1)c1c(C(F)(F)F)nc2ccc(Cl)cc2[n+]1[O-]` the GI50 was 61 µM and the TGI was > 100 µM. In the case of `Clc1cc2c(c(CSc3nc4ccccc4n4cccc34)c1)OCOC2`, the GI50 is reported as 2.7 µM and the TGI is reported as > 100 µM. `CN1CCN(c2ccc(Nc3cc(-c4cccc(-n5ccc6cc(C7CC7)cc(F)c6c5=O)c4CO)cn(C)c3=O)nc2)CC1` was tested, and the GI50 was 5.11 µM and the TGI was 26.1 µM. `COc1ccc2nc3ccccc3c(NCc3ccc(F)cc3)c2c1` gave a GI50 of 1.54 µM and a TGI of 5.23 µM. In the case of `CN(C)C1CCN(C(=O)c2ccc(NC(=O)Nc3ccc(-c4nc(N5CCOCC5)c5cccn5n4)cc3)cc2)CC1`, the GI50 is reported as 2.77 µM and the TGI is reported as > 50.7 µM. For `COc1cc(N=Nc2ccc(O)c3ncccc23)c2ncccc2c1`, the GI50 was 0.923 µM and the TGI was > 100 µM. `CCOC(=O)N[C@H]1CCc2cc(OC)c(OC)c(OC)c2-c2ccc(SC)c(=O)cc21` was tested, and the TGI was > 100 µM. For `CCn1c(O)c(/C=N/NC(=O)C(C)c2ccc(CC(C)C)cc2)sc1=S` (stereo unspecified), the GI50 was 0.379 µM and the TGI was > 35.4 µM. With `C[C@@H]1C[C@@H]([C@@H](CC2CC(=O)NC(=O)C2)OC(=O)CC(=O)c2ccccc2)C(=O)[C@@H](C)C1` the GI50 was 0.809 µM and the TGI was > 100 µM. For `N=c1c2c(-c3ccccc3)c(-c3ccccc3)n(Cc3ccccc3)c2ncn1C1CCC(O)CC1` (stereo unspecified), the GI50 was 0.27 µM and the TGI was 14.7 µM. `O=c1c(F)cn(Cc2ccc(C34CC5CC(CC(C5)C3)C4)c(O)c2)c(=O)n1Cc1ccc(C23CC4CC(CC(C4)C2)C3)c(O)c1` gave a GI50 of 13.6 µM and a TGI of 26.5 µM. In the case of `CCOC(=O)Nc1cc2c(c(N)n1)N=C(c1ccccc1)CO2`, the GI50 is reported as 0.0894 µM and the TGI is reported as > 100 µM. For `CC1CC2CCCC(O)=C2C(=O)O1` (stereo unspecified), the TGI was > 100 µM. `CC(C)(/C=C(\C#N)C(=O)N1CCC[C@@H](n2nc(-c3ccc(Oc4ccccc4)cc3F)c3c(N)ncnc32)C1)N1CCN(C2COC2)CC1` gave a GI50 of 6.11 µM and a TGI of 21 µM. `O=c1oc2ccc(-c3ccc(F)cc3F)cc2c(=O)n1-c1cccc(C(F)(F)F)c1` was tested, and the GI50 was 1.61 µM and the TGI was 23.4 µM. `COC(=O)c1ccc2c(c1)C(=O)c1c-2n(CCCN=[N+]=[N-])c(=O)c2cc(OC)c(OC)cc12` was tested, and the GI50 was > 100 µM and the TGI was > 100 µM. In the case of `O=C(Cc1ccc(F)c(Cl)c1)Nc1cc(C2(C(F)(F)F)CC2)nn1CC1CCCCC1`, the GI50 is reported as 3.87 µM and the TGI is reported as > 15 µM. In the case of `NC1CCN(Cc2ccccc2)CC1`, the GI50 is reported as > 100 µM and the TGI is reported as > 100 µM. `Nc1ncn([C@@H]2O[C@H](CO)[C@@H](O)[C@H]2O)c(=O)n1` gave a GI50 of 1.6 µM and a TGI of 21.1 µM. `CC(=O)Nc1ccc(-c2csc(Nc3cccc(-c4csc(C)n4)c3)n2)cc1` was tested, and the GI50 was 0.289 µM and the TGI was > 27.4 µM. With `C=CCC1(c2ccc(OC)cc2)C=CC(=O)CC1` (stereo unspecified) the TGI was > 100 µM. Work on `COc1ccc(C(=O)Nc2ccc(O)c(=O)cc2)cc1` yielded a TGI of 89.5 µM.
